Experimental data from patent US10363261B2, “Enolase inhibitors and methods of treatment therewith” (Board of Regents, The University of Texas System, priority 2015, dated 2019).

Key:
[1] = test system: Vinculin or Triosephosphate isomerase; assay: Thermal shift assay, internal controls; format: binding, human
Description: (§1) Thermal shift assays were conducted as described in Martinez Molina, et al. (2013), on lysates of D423 cell line overexpressing ENO1 and ENO2, on recombinant human ENO1 and ENO2 purified from E. coli as well as intact D423 ENO2 overexpressing glioma cells. […] Lysates were diluted (1:100) in Enolase enzymatic activity buffer as mentioned above. Diluted lysates were treated with SF2312, PhAH or vehicle and heated on a C1000 Thermal cycler (Bio-rad) with a linear temperature gradient (50 to 82.5° C. in 2.5° C. increments) for 3 minutes (FIG. 24). The lysates were then centrifuged at 20,000 g for 10 minutes. Supernatant and pellet were then separated and NuPage LDS Sample buffer (Life Technologies # NP0007) was added. Western Blots were performed as described previously (Muller, et al., 2012). The following antibodies were used: ENO1 (Abcam # ab155102), ENO2 (Dako # M087301-2), Vinculin (EMD Millipore #05-386), pan-ENO (Santa Cruz Biotechnology, sc-7455) and TPI (Proteintech #10713-1-AP). Recombinant human ENO2: The same procedure was carried out on purified recombinant ENO2 from E. coli, utilizing the purified protein generated for the X-ray crystallography studies. […]

[2] = Hematocrit / hemolytic anemia after IV administration
Description: Erythrocytes are sensitive to disruptions in the glycolytic cycle as glycolysis is the cell's only source of energy in the form of ATP.

ENO1-intact glioma cells = assay: Toxicity to ENO1-intact glioma cells during 13C-1 glucose tracing; format: cell-based, human; conditions: 10 μM, four days
Description: ^13C-1 glucose tracing by NMR treatment was performed with a concentration of SF2312 (10 μM) that is non-toxic to ENO1-intact glioma cells for four days, led to profound inhibition of glucose consumption (isomeric peaks at 97 and 93 ppm) and lactate production (single peak at 20 ppm) in the media of D423 and Gli56 ENO1 deleted but not ENO1-intact glioma cells (FIG. 33). At the same time, a single peak at 64 ppm became visible in the D423 and Gli56 ENO1-deleted cells treated with SF2312. The most likely origin of this peak is the C-3 atom glycerate, which has a reported ^13C peak of 64 ppm (Spectral Database of Organic Compounds, SDBS No. 18695) and is the atom on which the ^13C label derived from the C-1 atom on glucose is expected. […] Glycerate likely forms in response to enolase inhibition as 2-PGA or 3-PGA accumulate and (the substrates of the enzyme) spontaneously hydrolyze, or alternatively, are dephosphorylated by the action of glycerate kinase (GLYCTK, FIG. 41). These experiments were repeated with D423 ENO1-deleted and isogenic ENO1-rescued control glioma cells with both PhAH and SF2312 (FIGS. 32C & 32D). […] This effect is especially noticeable when expressed as a ratio of ^13C-glycerate to ^13C-lactate, metabolites upstream and downstream of the enolase reaction, respectively (FIG. 32D). […]

enolase 2 = biological target: T1, enolase 2 (Homo sapiens, UniProt P09104); assay: Thermal shift assay in intact glioma cells overexpressing ENO2 (D423 ENO2); format: cell-based; conditions: 100 μM inhibitor
T1 construct: expressed in transfected cells; host or cells: D423 (D423-MG) human glioma cells, clone pCMV ENO2 1x
T1 sequence (P09104 whole entry): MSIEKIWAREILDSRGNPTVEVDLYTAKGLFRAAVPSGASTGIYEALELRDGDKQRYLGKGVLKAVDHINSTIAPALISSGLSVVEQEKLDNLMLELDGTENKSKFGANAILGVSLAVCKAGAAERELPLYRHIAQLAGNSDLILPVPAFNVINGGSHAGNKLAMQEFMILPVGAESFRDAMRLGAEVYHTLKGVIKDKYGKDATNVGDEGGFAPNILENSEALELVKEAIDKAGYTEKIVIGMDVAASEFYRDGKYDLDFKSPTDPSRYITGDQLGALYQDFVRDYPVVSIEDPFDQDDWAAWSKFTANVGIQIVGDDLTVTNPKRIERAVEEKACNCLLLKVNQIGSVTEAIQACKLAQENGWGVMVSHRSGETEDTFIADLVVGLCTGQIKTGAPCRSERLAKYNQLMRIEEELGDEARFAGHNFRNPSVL
Description: as §1

O=C1C(P(=O)(O)O)CC(O)N1O (racemic) [SF2312, 3-dihydroxyphosphoryl-1,5-dihydroxy-2-pyrrolidone]
effect on the thermal stability of the internal controls [1]: neither PhAH nor SF2312 had any effect | hematocrit after treatment (drop from 45%) ([2]; 100 mg/kg IV for longer than a week): 29% | dose at which mild hemolytic anemia can be observed ([2]; as low as): 50 mg/kg | toxicity to ENO1-intact glioma cells (ENO1-intact glioma cells): non-toxic | shift of the thermal melting curve of ENO2 in intact glioma cells (enolase 2): ~15 °C
